# Results from patent US11191811B2, “Osteocalcin as a treatment for frailty associated with aging” (THE TRUSTEES OF COLUMBIA UNIVERSITY IN THE CITY OF NEW YORK, priority 2014, dated 2021).
# Entries after “also recorded” stand apart in the source; their conditions may differ.
# Tests used:
# muscles of WT mice = assay: Western blot of Akt, AMPK and HSL phosphorylation in muscles of WT mice given Ocn; assay type: in vivo, mouse
# Experimental: FIG. 31. Osteocalcin treatment increases muscle function in young and old WT mice. (A-B) Performance during endurance exercise of 3 month-old WT, Gprc6af/f and Gprc6aMck−/− female mice treated with Ocn (n=6-10 per group). (C) Performance during endurance exercise of 12 and 15 month-old WT female mice treated with Ocn (n=6-10 per group). (D) Western blot analysis of Akt phosphorylation (Ser473) in muscles of WT mice injected with Ocn (500 ng/g) after a single bout of exercise. (E) Western blot analysis of AMPK phosphorylation ([…]) in muscles of WT mice injected with Ocn (500 ng/g) after a single bout of exercise. (F) Western blot analysis of HSL phosphorylation (Ser563) in muscles of WT mice injected with Ocn (500 ng/g) after a single bout of exercise. (G) Uptake of ^3H-2-DG in glycolytic (Gly—white quadriceps) and oxidative (Ox—red quadriceps) muscles after a single bout of exercise in 15 month-old WT mice receiving Ocn before running (n=5 per group). (H) Performance during endurance exercise of 10 month-old WT mice receiving Ocn for 28 days (n=7 per group). (I) Expression of Cd36, Fatp1 and Cpt1b in gastrocnemius of 10 month-old WT mice receiving Ocn for 28 days (n=7 per group). (J) Western blot analysis of Akt phosphorylation (Ser473) in muscles of WT mice receiving Ocn for 28 days (n=7 per group). (K) Schematic representation of how osteocalcin signaling in myofibers and IL-6 cooperate to increase exercise capacity.
# To determine if osteocalcin has the same ability in older mice, 12 and 15 month-old mice that have low circulating osteocalcin levels were injected prior to running with 500 ng/g of body weight of osteocalcin in order to raise their circulating levels substantially. […] This was due to an increase in the phosphorylation of Akt, AMPK and HSL, as well as in glucose uptake, that occurred to a greater extent in oxidative muscles that express Gprc6a at the highest level, than in glycolytic muscles (FIG. 31C-F). Whether chronic delivery of osteocalcin through mini-pumps (90 ng/hour) for 28 days would increase muscle function in 9 month old mice that have the lowest circulating osteocalcin levels was also tested. […] This improved ability to perform exercise was caused in part by an increase in the expression in muscle of the fatty acid transporter Fatp1 and an activation of the Akt pathway (FIG. 31H-).
# Osteocalcin−/− mice = assay: Behavioral tests of Osteocalcin−/− mice with ICV infusion (DLT, EPMT, OFT, FST, TST); assay type: in vivo, mouse; conditions: for anxiety / depression: ICV infusion 10 ng/hour, week-long, Osteocalcin−/− mice
# Experimental: FIG. 12. Administration of osteocalcin alleviates anxiety and depression. (A-E) Behavioral analyses of adult Osteocalcin^−/− mice receiving recombinant uncarboxylated osteocalcin through intracerebro-ventricular (ICV) infusions. (A) Light and Dark test, (B) Elevated plus maze test, (C) Open field test, (D) Forced swim test, and (E) Tail suspension test performed in a cohort of WT (n=7) and Osteocalcin^−/− infused with vehicle or recombinant uncarboxylated osteocalcin (10 ng/hour). In each set of three bars, the rightmost bar represents the results following administration of osteocalcin.
# For osteocalcin delivery to pregnant mice, IP injections (240 ng/day) were performed as soon as a plug was present daily until delivery (E0.5-E18.5). For osteocalcin or leptin infusion in adult Osteocalcin^−/− or ob/ob mice, pumps (Alzet micro-osmotic pump, Model 1002) delivering osteocalcin (300 ng/hr), leptin (50 ng/hr), or vehicle were surgically installed subcutaneously in the backs of 3-month old mice. For the postnatal rescue of cognitive functions in Osteocalcin^−/− mice, osteocalcin (10 ng/hour) or vehicle were delivered intrasubventricularly (icv) as previously described (Ducy et al., 2000, Cell 100:197-207). Leptin and osteocalcin content in sera and tissues were determined by ELISA.
# Tail suspension testing was performed as previously described (Mayorga et al., 2001, J. Pharmacology Exper. Therapeutics 298:1101-1107; Steru et al., 1985, Psychopharmacology 85:367-370). Mice were transported a short distance from the holding facility to the testing room and left there undisturbed for at least 1 hour. Mice were individually suspended by the tail (distance from floor was 35 cm) using adhesive tape (distance from tip of tail was 2 cm). […] The parameter recorded was the number of seconds spent immobile. Mice were scored by a highly trained observer, over a 5 min period, blind to the genotype of the mice.
# Anxiety and locomotor activity of mice were measured using the open field test (David et al., 2009, Neuron 62:479-493). Each animal was placed in a 43×43 cm open field chamber, and tested for 30 min. Mice were monitored throughout each test session by video tracking and analyzed using Matlab software. Mice were placed individually into the center of the open-field arena and allowed to explore freely. The overall motor activity was quantified as the total distance travelled. The anxiety was quantified measuring the number of rearings and the time and distance spent in the center versus periphery of the open field chamber (in %).
# Each mouse was allowed to explore the apparatus for 5 min. Global activity was assessed by measuring the number of entries […] (David et al, 2009, Neuron 62:479-493). Anxiety was assessed by comparing the time spent in the open arms.
# The forced swimming test was carried out according to the method described by David et al., 2009, Neuron 62:479-493. Briefly, mice were dropped individually into glass cylinders (height: 25 cm, diameter: 10 cm) containing 10 cm water height., maintained at 23-25° C. Animals were tested for a total of 6 min. The total duration of immobility time was recorded. Mice were considered immobile when they made no attempts to escape with the exception of the movements necessary to keep their heads above the water. Mice were scored by an observer blind to their genotypes.
# The test was performed in a quiet, darkened room. Mice were individually housed in cages containing a handful of bedding from their home cage and acclimated to the room at least 1 h before the test. Naïve mice were placed individually in the testing chamber in the dark compartment. The test was 5 min in duration, and time spent and number of entries in light compartments were recorded a highly trained observer, blind to the genotype of the mice. […]
# wild-type = assay: Glycolysis, extracellular acidification rate (ECAR); assay type: cell-based, mouse; conditions: ECAR (FIG. 20); in muscle
# Excerpt: FIG. 20. Osteocalcin favors glycolysis. (a) Effect of increasing amounts of uncarboxylated osteocalcin on change in extracellular acidification rate (ECAR) in wild-type mice. The effect of insulin is also shown for comparison. (B) Effect of uncarboxylated osteocalcin on ECAR of wild-type and Gprc6a^−/− mice. (C) L-lactate production in wild-type and Gprc6a^−/− mice.
# [1] = WT mice injected with Ocn (500 ng/g), after a single bout of exercise, listed as osteocalcin
# [2] = listed as undercarboxylated/uncarboxylated osteocalcin
substance,measurement,setting,value
"uncarboxylated osteocalcin: Recombinant uncarboxylated mouse osteocalcin, bacterially produced, purified on glutathione beads and cleaved from the GST subunit by thrombin (YLGASVPSPDPLEPTREQCELNPACDELSDQYGLKTAYKRIYGITI)",phosphorylation of AMPK in muscle,"muscles of WT mice; WT mice injected with Ocn (500 ng/g), after a single bout of exercise",increase
same,phosphorylation of Akt in muscle,"muscles of WT mice; WT mice injected with Ocn (500 ng/g), after a single bout of exercise, listed as Osteocalcin",induced
same,phosphorylation of Akt in muscle,muscles of WT mice; [1],increase
same,phosphorylation of HSL (Ser563) in muscle,muscles of WT mice; [1],enhanced; also recorded: increase
same,Akt pathway in muscle,muscles of WT mice; mini-pumps 90 ng/hour for 28 days,activation
same,anxiety,Osteocalcin−/− mice,corrected
same,depression,Osteocalcin−/− mice,corrected
same,anxiety,Osteocalcin−/− mice; listed as osteocalcin,alleviates
same,depression,Osteocalcin−/− mice; listed as osteocalcin,alleviates
same,anxiety,Osteocalcin−/− mice; [2],rescued
same,depression,Osteocalcin−/− mice; [2],rescued
same,learning and memory,Osteocalcin−/− mice; direct administration to the brains of adult Osteocalcin−/− mice,rescued
same,glycolysis,wild-type,favors
